Test results from patent publication US11629171B2, “Beta-hairpin peptidomimetics” (POLYPHOR AG, priority 2017, dated 2023).
≈ marks a conversion by molar mass, not a printed value. Where a SMILES comes first, the peptide text is derived from it. Bridges are numbered along the chain shown (N, C = ends). Roman numbers before positions name the chains, in order. [ ]: non-standard residue; d: D form. Tle = CC(C)(C)[C@H](N)C(=O)O; NMeV = CN[C@H](C(=O)O)C(C)C; dDab = NCC[C@@H](N)C(=O)O; hSer = N[C@@H](CCO)C(=O)O; Orn = NCCC[C@H](N)C(=O)O; Dab = NCC[C@H](N)C(=O)O; Dap = NC[C@H](N)C(=O)O

Assays:
Format in all cases: cell-based
[1] = test system: Acinetobacter baumannii 872842; conditions: 872842
Method: (§1) The in vitro antimicrobial activities of the peptides were determined in 96-well plates (Greiner, polystyrene) by the standard CLSI broth microdilution method (Clinical and Laboratory Standards Institute 2014. Performance standards for antimicrobial susceptibility testing, 24th informational supplement. Approved standard CLSI M100-S24; Clinical and Laboratory Standards Institute, Wayne, Pa.). The following microorganisms were used to determine antibiotic activity of the peptides: Escherichia coli ATCC 25922, Klebsiella pneumoniae SSI #3010^a), Acinetobacter baumannii DSM 30008, Pseudomonas aeruginosa ATCC 27853 and the clinical isolates Escherichia coli 926415^b), Klebsiella pneumoniae 968733^b), Acinetobacter baumannii 872842^b), Enterobacter cloacae 848840^b) and Escherichia coli MCR-1 Af45^c). Before preparation of inocula, Escherichia coli MCR-1 Af45 was subcultured on Mueller-Hinton II (MH-cation adjusted) agar containing 2 μg/mL colistin. ^a) Obtained from Statens Serum Institut (SSI), Copenhagen, Denmark^b) Obtained from International Health Management Associates, Inc. (IHMA Europe Sàrl), Epalinges, Switzerland^c) Obtained from Prof. Patrice Nordmann, University of Fribourg, Fribourg, Switzerland
(§2) Inocula of the microorganisms were diluted into Mueller-Hinton II (MH-cation adjusted) broth and compared with a 0.5 McFarland standard to give appr. 10^6 colony forming units (CFU)/mL. Aliquots (90 μL) of inoculum were added to 10 μL of MH-II broth+P-80 (Polysorbate 80, 0.002% final concentration, v/v) containing the peptide in serial two-fold dilutions. Antimicrobial activities of the peptides were expressed as the minimal inhibitory concentration (MIC) in μg/mL at which no visible growth was observed after 18-20 hours of incubation at 35° C.

[2] = test system: Acinetobacter baumannii DSM 30008; conditions: DSM 30008
Method: as §1, §2

[3] = test system: Enterobacter cloacae 848840; conditions: 848840
Method: as §1, §2

Escherichia coli 926415 = conditions: 926415
Method: as §1, §2

[4] = test system: Escherichia coli ATCC 25922; conditions: ATCC 25922
Method: as §1, §2

[5] = test system: Klebsiella pneumoniae 968733; conditions: 968733
Method: as §1, §2

[6] = test system: Klebsiella pneumoniae SSI #3010; conditions: SSI #3010
Method: as §1, §2

[7] = test system: Pseudomonas aeruginosa ATCC 27853; conditions: ATCC 27853
Method: as §1, §2

[8] = test system: human red blood cells (hRBC); assay: Hemolysis; conditions: red cells of human, 1 h, 200
Method: The peptides were tested for their hemolytic activity against human red blood cells (hRBC). Fresh hRBC were washed four times with phosphate buffered saline (PBS) and centrifuged for 10 min at 3000×g. Compounds (200 μg/mL) were incubated with 20% hRBC (v/v) for 1 h at 37° C. and shaking at 300 rpm. A value of 0% and 100% cell lysis, respectively, was determined by incubation of hRBC in the presence of PBS containing 10% water and 2% Triton X-100 in H2O, respectively. The samples were centrifuged, the supernatants were ˜7.5-fold diluted in PBS buffer and the optical densities (OD) were measured at 540 nm and blank corrected. The 100% lysis value (OD540Triton X-100) gave an OD540 of approximately 0.5-1.0.
Percent hemolysis was calculated as follows: (OD540peptide/OD540Triton X-100)×100%.

MIC [1]	MIC [2]	MIC [3]	MIC (Escherichia coli 926415)	MIC [4]	MIC [5]	MIC [6]	MIC [7]	SMILES	Hemolysis at 200 μg/mL [8]
1 µg/mL (≈ 0.432 µM)	0.125 µg/mL (≈ 0.054 µM)	0.5 µg/mL (≈ 0.216 µM)	1 µg/mL (≈ 0.432 µM)	0.0625 µg/mL (≈ 0.027 µM)	4 µg/mL (≈ 1.73 µM)	0.25 µg/mL (≈ 0.108 µM)	0.125 µg/mL (≈ 0.054 µM)	CN[C@H](C(=O)N[C@H](C(=O)N[C@@H](Cc1ccc(O)cc1)C(=O)N[C@H]1CSSC[C@@H](C(=O)N[C@H](C(=O)N[C@@H](CO)C(N)=O)C(C)C)NC(=O)[C@H](Cc2c[nH]c3ccccc23)NC(=O)[C@H](CCO)NC(=O)[C@@H](CCN)NC(=O)[C@H](CCC(=O)N[C@@H](CCN)C(=O)N[C@H](C(=O)N[C@@H](CCN)C(=O)N[C@H]2CCNC(=O)[C@H]([C@@H](C)O)NC(=O)[C@H](CCN)NC(=O)[C@H](CCN)NC(=O)[C@H](CC(C)C)NC(=O)[C@@H](CC(C)C)NC(=O)[C@H](CCN)NC2=O)[C@@H](C)O)NC1=O)[C@@H](C)O)C(C)C [Ex. 12] (I: H-[NMeV]TYCE[dDab][hSer]WCVS-NH2 / II: [Dab]T[Dab][Dab][Dab][dL]L[Dab][Dab]T; disulfide I:4-I:9; amide I:5-II:N; lactam II:4-II:C)	2%
0.25 µg/mL (≈ 0.106 µM)	0.125 µg/mL (≈ 0.0532 µM)	0.125 µg/mL (≈ 0.0532 µM)	0.25 µg/mL (≈ 0.106 µM)	0.0625 µg/mL (≈ 0.0266 µM)	0.25 µg/mL (≈ 0.106 µM)	0.125 µg/mL (≈ 0.0532 µM)	0.25 µg/mL (≈ 0.106 µM)	CC(=O)N[C@H](C(=O)N[C@H]1CCCNC(=O)[C@@H]([C@H](C)O)NC(=O)[C@H](C(C)(C)C)NC(=O)[C@H](CO)NC(=O)[C@H](Cc2c[nH]c3ccccc23)NC(=O)[C@H](CCO)NC(=O)[C@@H](CCN)NC(=O)[C@H](CCC(=O)N[C@@H](CCN)C(=O)N[C@H](C(=O)N[C@@H](CCN)C(=O)N[C@H]2CCNC(=O)[C@H]([C@@H](C)O)NC(=O)[C@H](CCN)NC(=O)[C@H](CCN)NC(=O)[C@H](CC(C)C)NC(=O)[C@@H](CC(C)C)NC(=O)[C@H](CCN)NC2=O)[C@@H](C)O)NC(=O)[C@H](CCN)NC(=O)[C@H](Cc2ccc(O)cc2)NC1=O)C(C)C [Ex. 15] (I: Ac-V[Orn]Y[Dab]E[dDab][hSer]WS[Tle][dT] / II: [Dab]T[Dab][Dab][Dab][dL]L[Dab][Dab]T; lactam I:2-I:C, II:4-II:C; amide I:5-II:N)	<1%
0.25 µg/mL (≈ 0.107 µM)	0.0625 µg/mL (≈ 0.0268 µM)	0.25 µg/mL (≈ 0.107 µM)	0.25 µg/mL (≈ 0.107 µM)	0.0625 µg/mL (≈ 0.0268 µM)	0.125 µg/mL (≈ 0.0536 µM)	0.0625 µg/mL (≈ 0.0268 µM)	0.25 µg/mL (≈ 0.107 µM)	CC(=O)N[C@H](C(=O)N[C@H]1CCCNC(=O)[C@@H]([C@H](C)O)NC(=O)[C@H](C(C)(C)C)NC(=O)[C@H](CO)NC(=O)[C@H](Cc2c[nH]c3ccccc23)NC(=O)[C@H](CCO)NC(=O)[C@@H](CCN)NC(=O)[C@H](CCC(=O)N[C@@H](CCN)C(=O)N[C@H](C(=O)N[C@@H](CN)C(=O)N[C@H]2CCNC(=O)[C@H]([C@@H](C)O)NC(=O)[C@H](CCN)NC(=O)[C@H](CCN)NC(=O)[C@H](CC(C)C)NC(=O)[C@@H](CC(C)C)NC(=O)[C@H](CCN)NC2=O)[C@@H](C)O)NC(=O)[C@H](CCN)NC(=O)[C@H](Cc2ccc(O)cc2)NC1=O)C(C)C [Ex. 16] (I: Ac-V[Orn]Y[Dab]E[dDab][hSer]WS[Tle][dT] / II: [Dab]T[Dap][Dab][Dab][dL]L[Dab][Dab]T; lactam I:2-I:C, II:4-II:C; amide I:5-II:N)	<1%
